The source made the active and inactive calls. The calls are words filed in the database; no cut-off is given here.
Columns and labels:
[1] = test system: P388; experiment: Cytotoxicity against mouse P388 cells by MTT assay; type: functional, cell-based
[2] = test system: Human betaherpesvirus 5; experiment: Antiviral activity against human cytomegalovirus infected HEL cells after 7 days by; type: functional, organism-based; conditions: Human betaherpesvirus 5, HEL, 168 h
[3] = test system: HT-29; experiment: Cytotoxicity against human HT-29 cells by MTT assay; type: functional, cell-based
[4] = test system: HEL; experiment: Cytotoxicity against HEL cells by MTT assay; type: cell-based; conditions: Homo sapiens
[5] = test system: Salmonella enterica; experiment: Antibacterial activity against Salmonella enteritidis ATCC 13076 at 250 ug/ml by disk diffusion method; type: functional, organism-based; conditions: Salmonella enterica subsp. enterica serovar Enteritidis

| Structure (SMILES) | IC50 [1] | IC50 [2] | IC50 [3] | IC50 [4] | Activity [5] |
| --- | --- | --- | --- | --- | --- |
| COC(=O)/C1=C/CC/C(C)=C/[C@@H]2OCC(C)=C2CC[C@@]2(C)O[C@@H]2CC1 [LOBOPHYNIN C] | > 50 mg/L | 5.8 µM | > 50 mg/L | > 50 mg/L | inactive |
| COC(C)(C)/C1=C/C=C(\C)CC[C@@H]2O[C@@]2(C)CC/C=C(/C(=O)O)CC1 [EHRENBEROXIDE A] | > 50 mg/L | 24.8 µM | > 50 mg/L | > 50 mg/L | inactive |
| C/C1=C\C=C(\C(C)C)CC[C@@]2(C)O[C@H](C1)C[C@@](C)(O)CC[C@@H]2O [EHRENBEROXIDE B] | > 50 mg/L | 4.7 µM | > 50 mg/L | > 50 mg/L | inactive |

— ChEMBL document CHEMBL1154903, “Cembranoids from the octocoral Sarcophyton ehrenbergi” (J Nat Prod, 2010)
